Laboratory results: US8633205B2, “Substituted pyrrolo[2,3-d]pyrimidines as inhibitors of protein kinases” (Vertex Pharmaceuticals Incorporated, priority 2005, dated 2014)

What was measured:
Format in all cases: biochemical
ROCK = target: T1, ROCK (Homo sapiens, UniProt Q13464); assay: ROCK Inhibition Assays; details: read-out: ROCK enzyme inhibition (Ki)
T1 construct: ROCK I (AA 6-553)
Description: Compounds are screened for their ability to inhibit ROCK I (AA 6-553) activity using a standard coupled enzyme system (Fox et al. Protein Sci. 7: 2249, 1998). Reactions are carried out in a solution containing 100 mM HEPES (pH 7.5), 10 mM MgCl2, 25 mM NaCl, 2 mM DTT and 1.5% DMSO. Final substrate concentrations in the assay are 45 μM ATP (Sigma Chemicals, St Louis, Mo.) and 200 μM peptide (American Peptide, Sunnyvale, Calif.). Reactions are carried out at 30 ° C. and 45 nM ROCK I. Final concentrations of the components of the coupled enzyme system are 2.5 mM phosphoenolpyruvate, 350 μM NADH, 30 μg/ml pyruvate kinase and 10 μg/ml lactate dehydrogenase.
Compounds are screened for their ability to inhibit ROCK using a standard radioactive enzyme assay. Assays are carried out in a solution containing 100 mM HEPES (pH 7.5), 10 mM MgCl2, 25 mM NaCl, 2 mM DTT and 1.5% DMSO. Final substrate concentrations in the assay are 13 μM [γ-^33P] ATP (25 mCi ^33P ATP/mmol ATP, Perkin Elmer, Cambridge, Mass./Sigma Chemicals, St Louis, Mo.) and 27 μM Myelin Basic Protein (MBP). Final enzyme concentration in the assay is 5 nM ROCK. Assays are carried out at room temperature. 1.5 μl of DMSO stock containing serial dilutions of the compound of the present invention (concentrations ranging from 10 μM to 2.6 nM) is placed in a 96 well plate. 50 μl of Solution 1 (100 mM HEPES (pH 7.5), 10 mM MgCl2, […] [γ-^33P] ATP) is added to the plate. The reaction is initiated by addition of 50 μl of Solution 2 (100 mM HEPES (pH 7.5), 10 mM MgCl2, 4 mM DTT, […] and 10 nM ROCK). After 2 hours the reaction is quenched with 50 μL of 30% trichloroacetic acid (TCA, Fisher) containing 9 mM ATP. Transfer of 140 μL of the quenched reaction to a glass fiber filter plate (Corning, Cat. No.3511) is followed by washing 3 times with 5% TCA. 50 μL of Optima Gold scintillation fluid (Perkin Elmer) is added and the plates are counted on a Top Count (Perkin Elmer). After removing mean background values for all of the data points the data is fit using Prism software to obtain a Ki(app).

JAK2 = JAK2 (Homo sapiens, UniProt O60674); assay: JAK2 Inhibition Assay; details: 15 μM poly(Glu)4Tyr, 12 μM ATP; read-out: JAK2 enzyme inhibition (Ki)
Description: (§1) Compounds were screened for their ability to inhibit JAK using the […] below. Reactions were carried out in a kinase buffer containing 100 mM HEPES (pH 7.4), 1 mM DTT, 10 mM MgCl2, 25 mM NaCl, and 0.01% BSA.
(§2) Substrate concentrations in the assay were 5 μM ATP (200 uCi/μmole ATP) 1 μM poly(Glu)4Tyr. Reactions were carried out at 25 ° C. and 1 nM JAK3.
(§3) To each well of a 96 well polycarbonate plate was added 1.5 μl of a JAK3 inhibitor along with 50 μl of kinase buffer containing 2 μM poly(Glu)4Tyr and 10 μM ATP. This was then mixed and 50 μl of kinase buffer 2 nM JAK3 enzyme was added to start the reaction. After 20 minutes at room temperature (25C), the reaction was stopped with 50 μl of 20% trichloroacetic acid (TCA) that also contained 0.4 mM ATP. The entire contents of each well were then transferred to a 96 well glass fiber filter plate using a TomTek Cell Harvester. After washing, 60 μl of scintillation fluid was added and ^33P incorporation detected on a Perkin Elmer TopCount.
As described above in Example 11 except that JAK-2 enzyme is used, the final poly(Glu)4Tyr concentration is 15 μM, and final ATP concentration is 12 μM.

PKA = PKA (Homo sapiens, UniProt P17612); assay: PKA Inhibition Assay (coupled enzyme assay); details: 50 μM ATP, 80 μM Kemptide, 18 nM PKA, 30 °C
Description: Compounds were screened for their ability to inhibit PKA using a standard coupled enzyme assay (Fox et al., Protein Sci, 1998, 7, 2249). Assays were carried out in a mixture of 100 mM HEPES (pH 7.5), 10 mM MgCl2, 25 mM NaCl, 1 mM DTT and 3% DMSO. Final substrate concentrations in the assay were 50 μM ATP (Sigma Chemicals) and 80 μM peptide (Kemptide, American Peptide, Sunnyvale, Calif.). Assays were carried out at 30 ° C. and 18 nM PKA. Final concentrations of the components of the coupled enzyme system were 2.5 mM phosphoenolpyruvate, 300 μM NADH, 30 μg/ml pyruvate kinase and 10 μg/ml lactate dehydrogenase.
An assay stock buffer solution was prepared containing all of the reagents listed above, with the exception of ATP, and the test compound of the present invention. 55 μl of the stock solution was placed in a 96 well plate followed by addition of 2 μl of DMSO stock containing serial dilutions of the test compound of the present invention (typically starting from a final concentration of 5 μM). The plate was preincubated for 10 minutes at 30° C. and the reaction initiated by addition of 5 μl of ATP (final concentration 50 μM). Initial reaction rates were determined with a Molecular Devices SpectraMax Plus plate reader over a 15 minute time course. IC50 and Ki data were calculated from non-linear regression analysis using the Prism software package (GraphPad Prism version 3.0a for Macintosh, GraphPad Software, San Diego, Calif., USA).

JAK3 = target: T2, JAK3 (Homo sapiens, UniProt P52333); assay: JAK3 Inhibition Assay; details: 1 μM poly(Glu)4Tyr, 5 μM ATP, 1 nM JAK3, 25 °C; read-out: JAK3 enzyme inhibition (Ki)
T2 sequence (P52333 1-1124): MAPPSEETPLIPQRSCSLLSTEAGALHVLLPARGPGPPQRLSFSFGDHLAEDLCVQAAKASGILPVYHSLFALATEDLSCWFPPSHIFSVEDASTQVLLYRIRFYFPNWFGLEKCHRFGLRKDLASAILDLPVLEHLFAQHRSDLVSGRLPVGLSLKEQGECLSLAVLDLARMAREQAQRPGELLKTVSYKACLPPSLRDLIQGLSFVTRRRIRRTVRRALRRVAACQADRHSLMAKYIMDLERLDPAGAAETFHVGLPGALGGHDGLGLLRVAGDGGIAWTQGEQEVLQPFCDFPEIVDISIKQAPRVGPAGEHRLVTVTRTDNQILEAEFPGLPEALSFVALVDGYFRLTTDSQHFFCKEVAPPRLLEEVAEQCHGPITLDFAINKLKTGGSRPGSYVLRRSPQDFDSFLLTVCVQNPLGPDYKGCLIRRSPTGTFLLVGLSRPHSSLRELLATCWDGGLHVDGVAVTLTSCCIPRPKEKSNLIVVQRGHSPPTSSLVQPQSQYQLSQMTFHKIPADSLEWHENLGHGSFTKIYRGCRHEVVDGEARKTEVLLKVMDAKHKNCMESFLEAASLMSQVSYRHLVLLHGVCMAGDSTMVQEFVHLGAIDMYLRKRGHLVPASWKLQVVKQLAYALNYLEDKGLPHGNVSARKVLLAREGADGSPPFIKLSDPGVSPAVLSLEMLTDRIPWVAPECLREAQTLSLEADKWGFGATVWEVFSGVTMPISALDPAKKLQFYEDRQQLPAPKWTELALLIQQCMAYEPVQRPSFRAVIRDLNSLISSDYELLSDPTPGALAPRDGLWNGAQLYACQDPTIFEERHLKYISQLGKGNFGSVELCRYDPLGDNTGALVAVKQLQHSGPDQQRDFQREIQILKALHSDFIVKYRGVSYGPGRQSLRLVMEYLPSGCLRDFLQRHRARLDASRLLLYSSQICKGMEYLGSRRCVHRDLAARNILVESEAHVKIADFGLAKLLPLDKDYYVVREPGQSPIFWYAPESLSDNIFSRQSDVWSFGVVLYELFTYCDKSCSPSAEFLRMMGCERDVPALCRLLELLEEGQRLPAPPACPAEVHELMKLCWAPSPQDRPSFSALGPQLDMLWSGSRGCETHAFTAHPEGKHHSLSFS
Description: as §1, §2, §3

T1 sequence (Q13464 6-553): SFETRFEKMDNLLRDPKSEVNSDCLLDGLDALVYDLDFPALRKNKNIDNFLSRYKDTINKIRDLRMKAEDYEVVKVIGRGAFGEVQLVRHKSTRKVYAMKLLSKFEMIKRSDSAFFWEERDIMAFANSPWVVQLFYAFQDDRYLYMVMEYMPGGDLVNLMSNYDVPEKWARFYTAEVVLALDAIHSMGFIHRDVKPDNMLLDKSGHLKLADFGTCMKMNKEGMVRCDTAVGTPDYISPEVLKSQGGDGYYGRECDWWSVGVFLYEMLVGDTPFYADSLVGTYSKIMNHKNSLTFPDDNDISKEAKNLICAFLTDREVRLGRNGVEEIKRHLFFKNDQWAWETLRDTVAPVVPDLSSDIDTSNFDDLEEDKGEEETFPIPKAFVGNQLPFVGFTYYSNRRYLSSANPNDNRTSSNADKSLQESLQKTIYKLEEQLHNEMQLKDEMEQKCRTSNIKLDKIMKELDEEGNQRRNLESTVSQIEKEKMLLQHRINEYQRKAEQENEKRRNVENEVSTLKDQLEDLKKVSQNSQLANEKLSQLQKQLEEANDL
Sequence of JAK2 (O60674 whole entry): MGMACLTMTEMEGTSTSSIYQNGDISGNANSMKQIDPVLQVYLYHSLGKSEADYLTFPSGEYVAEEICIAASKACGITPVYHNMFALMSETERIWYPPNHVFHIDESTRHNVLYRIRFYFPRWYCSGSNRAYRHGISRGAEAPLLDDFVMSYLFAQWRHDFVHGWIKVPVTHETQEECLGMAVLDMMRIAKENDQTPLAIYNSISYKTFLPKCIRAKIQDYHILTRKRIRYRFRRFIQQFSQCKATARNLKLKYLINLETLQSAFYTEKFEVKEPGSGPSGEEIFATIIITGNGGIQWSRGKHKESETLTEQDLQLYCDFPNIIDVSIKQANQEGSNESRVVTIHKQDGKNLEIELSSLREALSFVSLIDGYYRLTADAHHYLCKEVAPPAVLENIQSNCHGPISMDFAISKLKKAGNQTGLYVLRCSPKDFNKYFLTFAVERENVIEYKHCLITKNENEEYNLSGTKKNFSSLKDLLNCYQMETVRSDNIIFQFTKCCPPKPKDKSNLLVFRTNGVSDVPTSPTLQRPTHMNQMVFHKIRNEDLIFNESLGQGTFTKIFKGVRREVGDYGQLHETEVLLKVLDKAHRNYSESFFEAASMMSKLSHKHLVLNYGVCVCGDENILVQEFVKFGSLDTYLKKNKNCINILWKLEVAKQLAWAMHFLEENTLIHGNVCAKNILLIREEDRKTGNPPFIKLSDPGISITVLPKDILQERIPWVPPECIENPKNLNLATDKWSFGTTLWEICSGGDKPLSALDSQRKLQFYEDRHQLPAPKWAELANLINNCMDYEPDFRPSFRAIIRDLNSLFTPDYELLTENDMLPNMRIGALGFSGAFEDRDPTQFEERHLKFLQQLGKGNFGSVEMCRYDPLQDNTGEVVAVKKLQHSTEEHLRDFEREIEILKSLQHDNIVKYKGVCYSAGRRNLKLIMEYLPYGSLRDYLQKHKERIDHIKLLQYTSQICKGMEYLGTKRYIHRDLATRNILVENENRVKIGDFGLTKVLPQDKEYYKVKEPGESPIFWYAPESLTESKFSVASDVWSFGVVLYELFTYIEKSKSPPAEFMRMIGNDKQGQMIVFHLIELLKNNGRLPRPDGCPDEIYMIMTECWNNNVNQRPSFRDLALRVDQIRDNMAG

Ki (ROCK) [nM]	Ki (JAK2) [nM]	Ki (PKA) [nM]	Ki (JAK3) [nM]	Compound
500 to 5000	< 500	500 to 5000	< 500	C1=C(c2ncnc3[nH]ccc23)C2CCC1C2 (stereo not drawn) [Compound 21]
500 to 5000	< 500	500 to 5000	< 500	FC(F)(F)c1ccc(/C=C/c2ncnc3[nH]ccc23)cc1 [Compound 7, 4-(4-(trifluoromethyl)styryl)-7H-pyrrolo[2,3-d]pyrimidine]
500 to 5000	> 5000	500 to 5000	> 5000	COC(=O)C(C)Cc1ncnc2[nH]ccc12 (stereo not drawn) [Compound 24]
500 to 5000	500 to 5000	500 to 5000	500 to 5000	N#CCCCCc1ncnc2[nH]ccc12 [Compound 28]
500 to 5000	< 500	500 to 5000	< 500	C=C(c1ncnc2[nH]ccc12)C1CCCC1 [Compound 18]
500 to 5000	< 500	500 to 5000	500 to 5000	N#CCC(=O)N1CC=C(c2ncnc3[nH]ccc23)CC1 [Compound 17]
500 to 5000	< 500	500 to 5000	< 500	CC(C)(C)OC(=O)N1CC=C(c2ncnc3[nH]ccc23)CC1 [Compound 9]
500 to 5000	< 500	500 to 5000	< 500	C1=C(c2ncnc3[nH]ccc23)CCSC1 [Compound 13]
500 to 5000	500 to 5000	500 to 5000	500 to 5000	CC(C)Cc1ncnc2[nH]ccc12 [Compound 25]
500 to 5000	500 to 5000	500 to 5000	500 to 5000	CC(c1ccccc1)c1ncnc2[nH]ccc12 (stereo not drawn) [Compound 23]
500 to 5000	500 to 5000	500 to 5000	500 to 5000	C=Cc1ncnc2[nH]ccc12 [Compound 14]
500 to 5000	< 500	500 to 5000	< 500	C1=C(c2ncnc3[nH]ccc23)CCCCC1 [Compound 20]
500 to 5000	500 to 5000	500 to 5000	500 to 5000	c1nc(C2CCCC2)c2cc[nH]c2n1 [Compound 3, 4-cyclopentyl-7H-pyrrolo[2,3-d]pyrimidine]
500 to 5000	< 500	500 to 5000	< 500	c1nc(CC2CCCCC2)c2cc[nH]c2n1 [Compound 27]
500 to 5000	500 to 5000	500 to 5000	–	C=C(c1ncnc2[nH]ccc12)C1CCCCC1 [Compound 12]
500 to 5000	< 500	500 to 5000	< 500	CC1CC=C(c2ncnc3[nH]ccc23)C1C (stereo not drawn) [Compound 19]
500 to 5000	< 500	500 to 5000	< 500	C1=C(c2ncnc3[nH]ccc23)CCCC1 [Compound 2]
500 to 5000	> 5000	500 to 5000	> 5000	CC(=O)N1CC=C(c2ncnc3[nH]ccc23)CC1 [Compound 15]
500 to 5000	500 to 5000	500 to 5000	500 to 5000	C=C(c1ncnc2[nH]ccc12)C1CCCN(C(=O)OC(C)(C)C)C1 (stereo not drawn) [Compound 22]
500 to 5000	> 5000	500 to 5000	500 to 5000	C=C(c1ccccc1)c1ncnc2[nH]ccc12 [Compound 8, 4-(1-phenylvinyl)-7H-pyrrolo[2,3-d]pyrimidine]
500 to 5000	< 500	500 to 5000	< 500	C(=C\c1ncnc2[nH]ccc12)/c1ccccc1 [Compound 4, 4-styryl-7H-pyrrolo[2,3-d]pyrimidine]
500 to 5000	500 to 5000	500 to 5000	500 to 5000	CC(C)(C#N)CCCCc1ncnc2[nH]ccc12 [Compound 30]
500 to 5000	< 500	500 to 5000	< 500	Fc1ccc(/C=C/c2ncnc3[nH]ccc23)cc1 [Compound 5, 4-(4-fluorostyryl)-7H-pyrrolo[2,3-d]pyrimidine]
500 to 5000	< 500	500 to 5000	< 500	C1=C(c2ncnc3[nH]ccc23)CCC1 [Compound 1, 4-cyclopentenyl-7H-pyrrolo[2,3-d]pyrimidine]

Compound	Ki (ROCK) [nM]	Ki (JAK2) [nM]	Ki (PKA) [nM]	Ki (JAK3) [nM]
C1=C(c2ncnc3[nH]ccc23)CCNC1 [Compound 10]	500 to 5000	> 5000	500 to 5000	> 5000
